Patent US9233961B2, “Compounds and compositions for the treatment of parasitic diseases” (Novartis AG, priority 2013, dated 2016)
Like-named read-outs stand apart in the source and are kept apart here.

Columns and labels:
[1] = system: Leishmania donovani axenic amastigote parasites; assay: Leishmania donovani axenic amastigote proliferation assay; format: cell-based
Procedure: Leishmania Donovani Axenic Amastigote Proliferation Assay
Leishmania donovani axenic amastigote parasites are grown at 37° C., 5% CO2 in media made of RPMI 1640, 4 mM L-glutamine, 20% heat inactivated FBS, 100 units/ml of penicillin and 100 μg/ml of streptomycin, 23 μM Folic Acid, 100 μM Adenosine, 22 mM D-glucose, 25 mM MES. The pH of media is adjusted to 5.5 at 37° C. using HCl. 20 μL of media is first dispensed into 384 well plates and 100 nL of the compounds of invention in DMSO are added to the plate wells. At the same time control compounds and DMSO are added to plates to serve as the positive and negative controls, respectively. 40 μL of parasite culture (9600 parasites) are then added to the plate wells. The plates are then placed into incubators. After 2 day incubation, 20 μL of Cell TiterGlo (Promega) is added to the plate wells. The luminescence signal of each well is measured using the Envision reader (Perkin Elmer). The percentage inhibition of 50%, EC50, is calculated for each of the compounds.

[2] = system: L. donovani HU3 strain in mouse peritoneal macrophages; assay: Assay for proliferation of Leishmania parasites in mouse peritoneal macrophages; format: cell-based, Leishmania donovani; details: Leishmania donovani, Peritoneal macrophage, read-out: L. donavani Macrophage EC50
Text: Assay for Proliferation of Leishmania Parasites
The activity of a compound according to the present invention for inhibition of parasitemai can be assessed by the parasite proliferation assay. The assay measures the increase in the parasite number in the assayed plate well using a DNA intercalating dye, SYBR Green I® dye (INVITROGEN) to stain Leishmania cell nuclei. It is understood that the assays illustrate the invention without in any way limiting the scope of the invention.
L. donovani HU3 strain is propagated by infecting BALB/c mice through tail vein injection with 10^7 Leishmania parasites. Infected mice are allowed to develop infection during 9-11 weeks post-infection. During this time, the parasites accumulate in the infected mouse spleens to large numbers, and the infected mice serve as the source of parasites for the in vitro measurement of compound efficacies. To assay a compound for anti-leishmanial activity, peritoneal macrophages isolated from non-infected BALB/c mice are seeded into 384-well plates at density 2×10^4 macrophages per well in […] of medium (RPMI 1640, 10% […], 10 mM HEPES, 1 mM sodium pyruvate, 1% Pen/Strep). Subsequently, the seeded plates are placed into an incubator set to maintain 37° C. temperature and atmosphere with 5% CO2. The next day, Leishmania parasites are isolated from the spleens of mice infected for 9-11 weeks and 4×10^5 isolated parasites in […] of the above media are added to each plate well. Plates are then returned into incubators and infection is allowed to proceed for 24 hours. After the infection of macrophages is completed, […] of compounds of the invention in the above medium, which also contains 5% DMSO, are added to plate wells containing infected macrophages. At the same time control compounds (miltefosine and amphotericin B) and DMSO are added to plates to serve as the positive and negative controls, respectively. After the compound addition, the plates are returned into incubator and cells infected with parasites are cultured for 5 days. At the end of cultivation, […] of 8% paraformaldehyde is added to plate wells and incubated for 15 min at room temperature. Following the incubation, the paraformaldehyde from plate wells is aspirated, and […] of PBS containing 0.2% Triton X-100 is added to wells. After 15 min incubation, the solution is aspirated from wells again, and replaced with SybrGreen Dye solution in PBS (1:125,000 dilution). Infected cells are imaged with Evotec Opera high-content microscope, and the number of parasites in well is determined by counting parasite nuclei visualized by staining with SybrGreen dye. The percentage inhibition of 50%, EC50, is calculated for each compound.
The inhibitory efficacy of the compounds of the invention in delaying the proliferation of L. donovani in mouse peritoneal macrophages is provided in Table I, infra.

[3] = axenic amastigotes in vitro, read-out: L. donovani amastigotes EC50

`O=C(Nc1ccc(Cl)c(-c2nc3ncc(-c4ccc(N5CCNCC5)cc4)cc3[nH]2)c1)N1CCCC1` [Compound 294] was tested, and the EC50 [1, 3] was over 25 µM and the EC50 [2] was 16.9 µM.

For `O=C(Nc1ccc(F)c(-c2nc3ncc(-c4ccc(OCCN5CCOCC5)cc4)cc3[nH]2)c1)N1CCCC1` [Compound 295], the EC50 [1, 3] was 2.86 µM and the EC50 [2] was 1.27 µM.

In the case of `COC(=O)Nc1ccc(-c2cnc3nc(-c4cc(NC(=O)N5CCCC5)ccc4Cl)[nH]c3c2)cc1` [Compound 296], the EC50 [1, 3] is reported as 0.034 µM and the EC50 [2] is reported as 0.126 µM.

Compound `O=C(Nc1ccc(F)c(-c2nc3ncc(-c4cnn(C5CCNCC5)c4)cc3[nH]2)c1)N1CCCC1` [Compound 298] has an EC50 [1, 3] of over 25 µM and an EC50 [2] of over 50 µM.

For `O=C(Nc1ccc(Cl)c(-c2nc3ncc(-c4ccc(OCCN5CCOCC5)cc4)cc3[nH]2)c1)N1CCCC1` [Compound 299], the EC50 [1, 3] was 0.73 µM and the EC50 [2] was 0.208 µM.

Compound `O=C(Nc1ccc(Cl)c(-c2nc3ncc(-c4ccsc4)cc3[nH]2)c1)N1CCCC1` [Compound 300] has an EC50 [1, 3] of 0.143 µM and an EC50 [2] of 0.289 µM.

In the case of `O=C(Nc1ccc(Cl)c(-c2nc3ncc(-c4cccc(OCCN5CCOCC5)c4)cc3[nH]2)c1)N1CCCC1` [Compound 301], the EC50 [1, 3] is reported as 0.91 µM and the EC50 [2] is reported as 1.05 µM.

`O=C(Nc1ccc(Cl)c(-c2nc3ncc(-c4ccc(OCCCN5CCOCC5)cc4)cc3[nH]2)c1)N1CCCC1` [Compound 302] gave an EC50 [1, 3] of 5.9 µM and an EC50 [2] of 9.9 µM.

`COCCOc1ccc(-c2cnc3nc(-c4cc(NC(=O)N5CCCC5)ccc4Cl)[nH]c3c2)cc1` [Compound 303] gave an EC50 [1, 3] of 0.146 µM and an EC50 [2] of 0.4 µM.

`CC(C)(CN)c1ccc(-c2cnc3nc(-c4cc(NC(=O)N5CCCC5)ccc4Cl)[nH]c3c2)cc1` [Compound 304] gave an EC50 [1, 3] of 9.6 µM and an EC50 [2] of 4.7 µM.

`C[Si](C)(C)CCOCn1cnc(-c2cnc3nc(-c4cc(NC(=O)N5CCCC5)ccc4Cl)[nH]c3c2)c1` [Compound 306] was tested, and the EC50 [1, 3] was 0.207 µM and the EC50 [2] was 0.181 µM.

For `O=C(Nc1ccc(Cl)c(-c2nc3ncc(-c4c[nH]cn4)cc3[nH]2)c1)N1CCCC1` [Compound 307], the EC50 [1, 3] was over 25 µM and the EC50 [2] was over 50 µM.

Work on `O=C(Nc1ccc(F)c(-c2nc3ncc(-c4ccc(OCC5CO5)cc4)cc3[nH]2)c1)N1CCCC1` (centres unmarked) [Compound 310] yielded an EC50 [1, 3] of 1.95 µM and an EC50 [2] of 4.6 µM.

For `CN1CCN(CCOc2ccc(-c3cnc4nc(-c5cc(NC(=O)N6CCCC6)ccc5F)[nH]c4c3)cc2)CC1` [Compound 311], the EC50 [1, 3] was over 25 µM and the EC50 [2] was over 6.9 µM.

`COCCOc1ccc(-c2cnc3nc(-c4cc(NC(=O)N5CCCC5)ccc4F)[nH]c3c2)cc1` [Compound 312] showed an EC50 [1, 3] of 1.75 µM and an EC50 [2] of 3.7 µM.

`CC(C)OC(=O)Nc1ccc(Cl)c(-c2nc3ncc(-c4ccccc4N)cc3[nH]2)c1` [Compound 334] showed an EC50 [1, 3] of 0.26 µM and an EC50 [2] of 0.99 µM.

Compound `CC(C)OC(=O)Nc1ccc(Cl)c(-c2nc3ncc(-c4ccccc4NC(=O)OC(C)C)cc3[nH]2)c1` [Compound 335] has an EC50 [1, 3] of 0.6 µM and an EC50 [2] of 1.09 µM.

For `CC(C)OC(=O)Nc1ccc(Cl)c(-c2nc3ncc(-c4ccccc4NC(=O)OC(C)C)cc3n2C(=O)OC(C)C)c1` [Compound 336], the EC50 [1, 3] was 1.89 µM and the EC50 [2] was 2.18 µM.

In the case of `CC(C)OC(=O)Nc1ccc(-c2cnc3nc(-c4cc(NC(=O)OC(C)C)ccc4Cl)[nH]c3c2)cc1` [Compound 337], the EC50 [1, 3] is reported as 0.119 µM and the EC50 [2] is reported as 0.295 µM.

Work on `CC(C)OC(=O)Nc1ccc(Cl)c(-c2nc3ncc(-c4ccc(NC(=O)CN)cc4)cc3[nH]2)c1` [Compound 338] yielded an EC50 [1, 3] of 2.4 µM and an EC50 [2] of 0.42 µM.

In the case of `CC(C)OC(=O)Nc1ccc(Cl)c(-c2nc3ncc(-c4ccc(NC(=O)CCN)cc4)cc3[nH]2)c1` [Compound 339], the EC50 [1, 3] is reported as 3.7 µM and the EC50 [2] is reported as 1.82 µM.

Compound `CC(C)OC(=O)Nc1ccc(Cl)c(-c2nc3ncc(-c4ccccc4NC(=O)CN)cc3[nH]2)c1` [Compound 340] has an EC50 [1, 3] of 11.7 µM and an EC50 [2] of 9.8 µM.

For `COC(=O)Nc1ccc(-c2cnc3nc(-c4cc(NC(=O)OC(C)C)ccc4Cl)[nH]c3c2)cc1` [Compound 341, methyl N-{4-[2-(2-chloro-5-{[(propan-2-yloxy)carbonyl]amino}phenyl)-1H-imidazo[4,5-b]pyridin-6-yl]phenyl}carbamate], the EC50 ([1]; 48 h, L. donovani axenic amastigotes, 2 day incubation, Cell TiterGlo luminescence, read-out: EC50) was about 0.08 µM, the EC50 [1, 3] was 0.08 µM and the EC50 [2] was 0.23 µM.

In the case of `CC(C)OC(=O)Nc1ccc(Cl)c(-c2nc3ncc(-c4ccccc4NC(=O)CCN)cc3[nH]2)c1` [Compound 342], the EC50 [1, 3] is reported as over 25 µM and the EC50 [2] is reported as 39.1 µM.

Work on `COC(=O)Nc1ccc(-c2cnc3nc(-c4cc(NC(=O)N5CCC5)ccc4Cl)[nH]c3c2)cc1` [Compound 344] yielded an EC50 [1, 3] of 7.6 µM and an EC50 [2] of 17 µM.

`CNc1ccc(-c2cnc3nc(-c4cc(NC(=O)c5ccc(CN(C)C)o5)ccc4Cl)[nH]c3c2)cc1` [Compound 347] showed an EC50 [1, 3] of over 25 µM and an EC50 [2] of 7.2 µM.

`CN(C)C(=O)Nc1ccc(F)c(-c2nc3ncc(Cl)cc3[nH]2)c1` [Compound 354] was tested, and the EC50 [1, 3] was over 25 µM and the EC50 [2] was over 50 µM.

Work on `CCN(CC)C(=O)Nc1ccc(F)c(-c2nc3ncc(Cl)cc3[nH]2)c1` [Compound 355] yielded an EC50 [1, 3] of over 25 µM and an EC50 [2] of over 50 µM.

`O=C(Nc1ccc(C(F)(F)F)cc1)Nc1ccc(F)c(-c2nc3ncc(Cl)cc3[nH]2)c1` [Compound 356] showed an EC50 [1, 3] of over 25 µM and an EC50 [2] of 19.6 µM.

`CC(C)(C)C(=O)Nc1ccc(F)c(-c2nc3ncc(Cl)cc3[nH]2)c1` [Compound 358] gave an EC50 [1, 3] of over 25 µM and an EC50 [2] of over 50 µM.

`O=C(CCN1CCCCC1)Nc1ccc(F)c(-c2nc3ncc(Cl)cc3[nH]2)c1` [Compound 359] was tested, and the EC50 [1, 3] was over 25 µM and the EC50 [2] was over 35.3 µM.

With `CC(C)N(C(=O)Nc1ccc(F)c(-c2nc3ncc(Br)cc3[nH]2)c1)C(C)C` [Compound 362] the EC50 [1, 3] was over 25 µM and the EC50 [2] was 7.5 µM.

`O=C(Nc1ccc(F)c(-c2nc3ncc(Br)cc3[nH]2)c1)N1CCOCC1` [Compound 365] gave an EC50 [1, 3] of 19.8 µM and an EC50 [2] of over 50 µM.

Compound `O=C(Nc1ccc(F)c(-c2nc3ncc(Br)cc3[nH]2)c1)c1cc[nH]n1` [Compound 368] has an EC50 [1, 3] of 18.9 µM and an EC50 [2] of over 50 µM.

In the case of `O=C(Nc1ccc(Cl)c(-c2nc3ncc(Br)cc3[nH]2)c1)c1cocn1` [Compound 369], the EC50 [1, 3] is reported as over 25 µM and the EC50 [2] is reported as over 50 µM.

With `O=C(Nc1ccc(Cl)c(-c2nc3ncc(Br)cc3[nH]2)c1)c1ccc(F)o1` [Compound 373] the EC50 [1, 3] was 0.55 µM and the EC50 [2] was 2.15 µM.

With `CN(C)CCn1c(-c2cc(NC(=O)N3CCCC3)ccc2Cl)nc2ncc(Br)cc21` [Compound 387] the EC50 [1, 3] was over 25 µM and the EC50 [2] was over 50 µM.

In the case of `O=C(Nc1ccc(Cl)c(-c2nc3ncc(Br)cc3n2CCN2CCOCC2)c1)N1CCCC1` [Compound 388], the EC50 [1, 3] is reported as over 25 µM and the EC50 [2] is reported as over 50 µM.

Work on `CN(C)c1ccc(-c2cnc3nc(-c4cc(NC(=O)Nc5ccc(C(F)(F)F)cc5)ccc4F)oc3c2)cc1` [Compound 390] yielded an EC50 [1, 3] of 12.6 µM and an EC50 [2] of 18.2 µM.

With `O=C(Nc1ccc(C(F)(F)F)cc1)Nc1ccc(F)c(-c2nc3ncc(-c4ccc(NCCN5CCOCC5)nc4)cc3o2)c1` [Compound 391] the EC50 [1, 3] was over 25 µM and the EC50 [2] was over 12.3 µM.

Compound `O=C(Nc1ccc(C(F)(F)F)cc1)Nc1ccc(F)c(-c2nc3ncc(-c4ccc(N5CCOCC5)cc4)cc3o2)c1` [Compound 392] has an EC50 [1, 3] of over 25 µM and an EC50 [2] of 8.4 µM.

`CNc1ccc(-c2cnc3nc(-c4cc(NC(=O)Nc5ccc(C(F)(F)F)cc5)ccc4F)oc3c2)cc1` [Compound 393] gave an EC50 [1, 3] of over 12.5 µM and an EC50 [2] of over 50 µM.

In the case of `Cc1n[nH]cc1-c1cnc2nc(-c3cc(NC(=O)Nc4ccc(C(F)(F)F)cc4)ccc3F)oc2c1` [Compound 394], the EC50 [1, 3] is reported as 11.7 µM and the EC50 [2] is reported as 4.8 µM.

Compound `O=C(Nc1ccc(C(F)(F)F)cc1)Nc1ccc(F)c(-c2nc3ncc(-c4ccc(CN5CCOCC5)cc4)cc3o2)c1` [Compound 395] has an EC50 [1, 3] of 12 µM and an EC50 [2] of 6.8 µM.
